Assay results as given in PubChem BioAssay (NCI).
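Step 1: Grow cells in 96-well plates. Step 2: Expose to compound for 48 hours at 5 concentrations. Step 3: Interpolate endpoints linearly; if unreached, use highest concentration. GI50 marks 50% less growth. TGI: total growth inhibition.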

Experiments:
Assay in all cases: DTP human tumour cell line panel, 48 h
SK-OV-3 ovarian = tested on: SK-OV-3 ovarian
UO-31 renal = tested on: UO-31 renal
EKVX NSCLC = tested on: EKVX NSCLC
RPMI-8226 leukemia = tested on: RPMI-8226 leukemia
M14 melanoma = tested on: M14 melanoma
PC-3 prostate = tested on: PC-3 prostate
ACHN renal = tested on: ACHN renal
NCI/ADR-RES ovarian = tested on: NCI/ADR-RES ovarian
MCF7 breast = tested on: MCF7 breast
DU-145 prostate = tested on: DU-145 prostate
SK-MEL-2 melanoma = tested on: SK-MEL-2 melanoma
HT29 colon = tested on: HT29 colon
OVCAR-5 ovarian = tested on: OVCAR-5 ovarian
LOX IMVI melanoma = tested on: LOX IMVI melanoma
SK-MEL-5 melanoma = tested on: SK-MEL-5 melanoma
SNB-75 CNS = tested on: SNB-75 CNS
IGROV1 ovarian = tested on: IGROV1 ovarian
A498 renal = tested on: A498 renal
CCRF-CEM leukemia = tested on: CCRF-CEM leukemia
UACC-62 melanoma = tested on: UACC-62 melanoma
NCI-H460 lung = tested on: NCI-H460 lung
U251 CNS = tested on: U251 CNS
SW-620 colon = tested on: SW-620 colon
TK-10 renal = tested on: TK-10 renal
MDA-MB-435 = tested on: MDA-MB-435
HL-60(TB) leukemia = tested on: HL-60(TB) leukemia
HOP-62 NSCLC = tested on: HOP-62 NSCLC
CAKI-1 renal = tested on: CAKI-1 renal
SN12C renal = tested on: SN12C renal
COLO 205 colon = tested on: COLO 205 colon
MOLT-4 leukemia = tested on: MOLT-4 leukemia
MALME-3M melanoma = tested on: MALME-3M melanoma
NCI-H226 lung = tested on: NCI-H226 lung
SF-539 CNS = tested on: SF-539 CNS
UACC-257 melanoma = tested on: UACC-257 melanoma
MDA-MB-231 breast = tested on: MDA-MB-231 breast
A549 NSCLC = tested on: A549 NSCLC
HCT-116 colon = tested on: HCT-116 colon
SR leukemia = tested on: SR leukemia
T-47D breast = tested on: T-47D breast
HOP-92 NSCLC = tested on: HOP-92 NSCLC
K-562 leukemia = tested on: K-562 leukemia
OVCAR-4 ovarian = tested on: OVCAR-4 ovarian
HS 578T breast = tested on: HS 578T breast
NCI-H23 lung = tested on: NCI-H23 lung
SF-268 CNS = tested on: SF-268 CNS
BT-549 breast = tested on: BT-549 breast
OVCAR-8 ovarian = tested on: OVCAR-8 ovarian
SNB-19 CNS = tested on: SNB-19 CNS
RXF 393 renal = tested on: RXF 393 renal
786-0 renal = tested on: 786-0 renal
KM12 colon = tested on: KM12 colon
SF-295 CNS = tested on: SF-295 CNS
NCI-H522 lung = tested on: NCI-H522 lung
HCC-2998 colon = tested on: HCC-2998 colon
SK-MEL-28 melanoma = tested on: SK-MEL-28 melanoma
HCT-15 colon = tested on: HCT-15 colon

SMILES: CCCCCCNC(=O)Oc1ccc(/C(=C(\C)c2ccc(Cl)cc2)c2ccc(OCCN(C)C)cc2)cc1
- GI50 (SK-OV-3 ovarian): 2220 nM
- TGI (SK-OV-3 ovarian): 6920 nM
- GI50 (UO-31 renal): 1310 nM
- TGI (UO-31 renal): 2770 nM
- GI50 (EKVX NSCLC): 3830 nM
- TGI (EKVX NSCLC): 16500 nM
- GI50 (RPMI-8226 leukemia): 1900 nM
- TGI (RPMI-8226 leukemia): 4300 nM
- GI50 (M14 melanoma): 1690 nM
- TGI (M14 melanoma): 3190 nM
- GI50 (PC-3 prostate): 1440 nM
- TGI (PC-3 prostate): 2840 nM
- GI50 (ACHN renal): 1880 nM
- TGI (ACHN renal): 3770 nM
- GI50 (NCI/ADR-RES ovarian): 3120 nM
- TGI (NCI/ADR-RES ovarian): 11800 nM
- GI50 (MCF7 breast): 216 nM
- TGI (MCF7 breast): 2190 nM
- GI50 (DU-145 prostate): 2020 nM
- TGI (DU-145 prostate): 3920 nM
- GI50 (SK-MEL-2 melanoma): 1870 nM
- TGI (SK-MEL-2 melanoma): 3800 nM
- GI50 (HT29 colon): 1710 nM
- TGI (HT29 colon): 3370 nM
- GI50 (OVCAR-5 ovarian): 4260 nM
- TGI (OVCAR-5 ovarian): 17100 nM
- GI50 (LOX IMVI melanoma): 1630 nM
- TGI (LOX IMVI melanoma): 2990 nM
- GI50 (SK-MEL-5 melanoma): 1770 nM
- TGI (SK-MEL-5 melanoma): 3250 nM
- GI50 (SNB-75 CNS): 1690 nM
- TGI (SNB-75 CNS): 7120 nM
- GI50 (IGROV1 ovarian): 1810 nM
- TGI (IGROV1 ovarian): 3570 nM
- GI50 (A498 renal): 2690 nM
- TGI (A498 renal): 12100 nM
- GI50 (CCRF-CEM leukemia): 1890 nM
- TGI (CCRF-CEM leukemia): 5640 nM
- GI50 (UACC-62 melanoma): 1720 nM
- TGI (UACC-62 melanoma): 3320 nM
- GI50 (NCI-H460 lung): 1700 nM
- TGI (NCI-H460 lung): 3120 nM
- GI50 (U251 CNS): 1590 nM
- TGI (U251 CNS): 3040 nM
- GI50 (SW-620 colon): 1600 nM
- TGI (SW-620 colon): 3030 nM
- GI50 (TK-10 renal): 1840 nM
- TGI (TK-10 renal): 4080 nM
- GI50 (MDA-MB-435): 1720 nM
- TGI (MDA-MB-435): 3240 nM
- GI50 (HL-60(TB) leukemia): 1620 nM
- TGI (HL-60(TB) leukemia): 4300 nM
- GI50 (HOP-62 NSCLC): 1630 nM
- TGI (HOP-62 NSCLC): 3180 nM
- GI50 (CAKI-1 renal): 1330 nM
- TGI (CAKI-1 renal): 2650 nM
- GI50 (SN12C renal): 1680 nM
- TGI (SN12C renal): 3220 nM
- GI50 (COLO 205 colon): 1680 nM
- TGI (COLO 205 colon): 3100 nM
- GI50 (MOLT-4 leukemia): 1930 nM
- TGI (MOLT-4 leukemia): 5270 nM
- GI50 (MALME-3M melanoma): 1720 nM
- TGI (MALME-3M melanoma): 3260 nM
- GI50 (NCI-H226 lung): 4260 nM
- TGI (NCI-H226 lung): 18100 nM
- GI50 (SF-539 CNS): 1740 nM
- TGI (SF-539 CNS): 3120 nM
- GI50 (UACC-257 melanoma): 1760 nM
- TGI (UACC-257 melanoma): 3280 nM
- GI50 (MDA-MB-231 breast): 1770 nM
- TGI (MDA-MB-231 breast): 3380 nM
- GI50 (A549 NSCLC): 1630 nM
- TGI (A549 NSCLC): 3130 nM
- GI50 (HCT-116 colon): 1530 nM
- TGI (HCT-116 colon): 3000 nM
- GI50 (SR leukemia): 1680 nM
- TGI (SR leukemia): 4100 nM
- GI50 (T-47D breast): 1450 nM
- TGI (T-47D breast): 4120 nM
- GI50 (HOP-92 NSCLC): 1020 nM
- TGI (HOP-92 NSCLC): 2220 nM
- GI50 (K-562 leukemia): 1660 nM
- TGI (K-562 leukemia): 7210 nM
- GI50 (OVCAR-4 ovarian): 1940 nM
- TGI (OVCAR-4 ovarian): 4650 nM
- GI50 (HS 578T breast): 1550 nM
- TGI (HS 578T breast): 3530 nM
- GI50 (NCI-H23 lung): 2240 nM
- TGI (NCI-H23 lung): 5710 nM
- GI50 (SF-268 CNS): 2390 nM
- TGI (SF-268 CNS): 7630 nM
- GI50 (BT-549 breast): 2880 nM
- TGI (BT-549 breast): 9200 nM
- GI50 (OVCAR-8 ovarian): 1600 nM
- TGI (OVCAR-8 ovarian): 3100 nM
- GI50 (SNB-19 CNS): 3310 nM
- TGI (SNB-19 CNS): 12400 nM
- GI50 (RXF 393 renal): 1330 nM
- TGI (RXF 393 renal): 2720 nM
- GI50 (786-0 renal): 1740 nM
- TGI (786-0 renal): 3270 nM
- GI50 (KM12 colon): 1870 nM
- TGI (KM12 colon): 3610 nM
- GI50 (SF-295 CNS): 1750 nM
- TGI (SF-295 CNS): 3200 nM
- GI50 (NCI-H522 lung): 1780 nM
- TGI (NCI-H522 lung): 3420 nM
- GI50 (HCC-2998 colon): 2060 nM
- TGI (HCC-2998 colon): 4290 nM
- GI50 (SK-MEL-28 melanoma): 1780 nM
- TGI (SK-MEL-28 melanoma): 3260 nM
- GI50 (HCT-15 colon): 1720 nM
- TGI (HCT-15 colon): 3300 nM
